Each structure is given as a SMILES string.

In this assay the target is T1, human Edg-1 receptor (Homo sapiens, UniProt P21453).
T1 construct: FLAG (N); expressed in transfected cells; membrane preparation
T1 sequence (P21453 whole entry): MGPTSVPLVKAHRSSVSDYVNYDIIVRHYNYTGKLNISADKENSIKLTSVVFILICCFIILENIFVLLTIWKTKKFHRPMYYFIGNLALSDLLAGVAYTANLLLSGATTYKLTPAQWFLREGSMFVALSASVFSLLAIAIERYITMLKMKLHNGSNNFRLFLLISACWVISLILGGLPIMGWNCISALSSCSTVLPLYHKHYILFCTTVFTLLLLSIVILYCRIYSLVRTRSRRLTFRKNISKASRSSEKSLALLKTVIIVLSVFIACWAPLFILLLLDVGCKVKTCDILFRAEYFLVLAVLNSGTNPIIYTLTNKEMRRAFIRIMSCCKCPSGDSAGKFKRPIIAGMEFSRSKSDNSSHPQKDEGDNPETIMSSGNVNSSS
The experiment in a line: GTP-γ-S assay using human Edg-1 receptors (scintillation proximity assay, CHO Flp-In cell membrane preparation). In kind it is biochemical. Particulars: test compound at 10 μM; high control 10 μM S1P regarded as 100% activation; [35S]GTP-γ-S binding, triplicate; read-out: % Activation (Edg-1 receptor activation in percent of the activation by 10 μM S1P). An excerpt:
A) GTP-γ-S Assay Using Human Edg-1 Receptors
In order to determine the Edg-1 receptor activation by the compounds of the invention, a GTP-γ-S (guanosine 5′-[thio]triphosphate) assay for G-protein coupled receptor binding based on the scintillation proximity assay principle was used, employing a cell membrane preparation from a CHO Flp-In cell line which constitutively overexpresses the human Edg-1 receptor.
The Flp-In™ expression system (Invitrogen, cat. no. K6010-01) allows the generation of stable mammalian cell lines into which the gene of interest has been integrated through homologous recombination at a specific genomic location called Flp Recombination Target (FRT) site by means of a Flp recombinase encoded by the pOG44 expression plasmid. The integration of the pcDNA5/FRT expression construct into the Flp-In host cell line genome results in the transcription of the gene of interest. The stably transfected cells become hygromycin-resistant.
One day prior to transfection, 200 000 Flp-In-CHO cells were seeded in Ham F-12 medium (Invitrogen, cat. no. 31765) supplemented with 10% fetal calf serum (FCS; Perbio Science, cat. no. SH30068.03) in a 6-well plate and incubated at 37° C./5% CO2 overnight. Using the FuGENE® 6 transfection reagent (Roche, cat. no. 11988387001), cells were cotransfected with the Flp recombinase expression plasmid pOG44 and a modified plasmid additionally containing the edg-1 gene (accession no. NM_001400) termed as pcDNA5-FRT-TO_nFLAG_DEST-EDG-1 with a 9:1 ratio. To obtain the modified pcDNA5-FRT-TO_nFLAG_DEST plasmid, the Invitrogen plasmid pcDNA5/FRT/TO (Invitrogen, cat. no. V6520-20) was adapted to the Gateway® (Invitrogen) cloning system by inserting a Gateway cassette containing attR recombination sites flanking a ccdB gene and a chloramphenicol-resistance gene (Gateway conversion system, Invitrogen, cat. no. 11828-029). In addition a FLAG tag epitope was added before the 5′ att recombination site to allow recombinant expression of N-terminally FLAG-tagged proteins.
For the transfection of one well, 1.08 μg of pOG44 and 0.12 μg of pcDNA5-FRT-TO_nFLAG_DEST-EDG-1 were mixed to 100 μl of serum-free Ham F-12 medium containing 6 μl of FuGENE® 6 transfection reagent. After 20 min of incubation, the transfection reagent/DNA complex was distributed dropwise on the cells. The cells were incubated for 24 h at 37° C. Then the cells from 3 wells were transferred to a T75 flask (Greiner Cellstar®, cat. no. 658175) containing Ham F-12 medium supplemented with 10% of FCS but without antibiotic and were incubated another 24 h. 48 h after transfection, the medium was replaced by selection medium (Ham F-12 supplemented with 10% of FCS and 300 μg/ml of hygromycin B (Invitrogen, cat. no. 10687-010)). The medium was exchanged every 2 to 3 days until a resistant population of cells had grown. […] After 2 weeks of selection, the cells were transferred into T175 flasks (Greiner Cellstar®, cat. no. 660175) and cultivated for batch production. Cells were harvested from the culture flasks by short treatment (2 to 5 min) with Accutase (PAA, cat. no. L11-007), resuspended in selection medium (see above) and centrifuged at 200×g for 5 min. The cells were resuspended in a mixture of 90% of FCS and 10% of dimethylsulfoxide and stored frozen in liquid nitrogen.
A membrane preparation was obtained by standard methods from the afore-described CHO Flp-In cell line constitutively overexpressing the human Edg-1 receptor. Briefly, the cryopreserved cells were taken in culture and grown until confluency in T175 cell culture flasks (Becton Dickinson, cat. no. 35 5001). […]
For orientation: In a scintillation proximity assay essentially only radioactivity close to the scintillant gives light.
Consider `CCCOc1nc(Oc2cccc(OC)c2)nc2oc(-c3cc(C)c(OCC(=O)O)c(C)c3)nc12` [Example 41, {4-[5-(3-methoxyphenoxy)-7-propoxy-oxazolo[5,4-d]pyrimidin-2-yl]-2,6-dimethylphenoxy}-acetic acid], for which the activation at 10 µM came out at 73%.
The figure for `CCCOc1nc(Oc2ccc(F)c(Cl)c2)nc2oc(-c3cc(C)c(OCC(=O)O)c(C)c3)nc12` [Example 62, {4-[5-(3-chloro-4-fluorophenoxy)-7-propoxy-oxazolo[5,4-d]pyrimidin-2-yl]-2,6-dimethylphenoxy}-acetic acid] is 56%; for `CCCOc1nc(Oc2ccc(C)c(F)c2)nc2oc(-c3cc(C)c(OCC(=O)O)c(C)c3)nc12` [Example 6, {4-[5-(3-fluoro-4-methyl-phenoxy)-7-propoxy-oxazolo[5,4-d]pyrimidin-2-yl]-2,6-dimethyl-phenoxy}-acetic acid] it is 73%.
The result for `CCCOc1nc(OCC2CCCCC2)nc2oc(-c3cc(C)c(OCC(=O)O)c(C)c3)nc12` [Example 11, [4-(5-cyclohexylmethoxy-7-propoxy-oxazolo[5,4-d]pyrimidin-2-yl)-2,6-dimethyl-phenoxy]-acetic acid] reads 76%; that for `CCCOc1nc(Oc2cccc3c2CCC3)nc2oc(-c3cc(C)c(OCC(=O)O)c(C)c3)nc12` [Example 52, {4-[5-(indan-4-yloxy)-7-propoxy-oxazolo[5,4-d]pyrimidin-2-yl]-2,6-dimethylphenoxy}-acetic acid], 54%.
With `CCCOc1nc(Oc2ccc(C)cc2)nc2oc(-c3cc(C)c(OCC(=O)O)c(C)c3)nc12` [Example 31, [2,6-dimethyl-4-(7-propoxy-5-(4-methylphenoxy)-oxazolo[5,4-d]pyrimidin-2-yl)-phenoxy]-acetic acid], the activation at 10 µM was 72%.
The figure for `CCCOc1nc(Oc2cc(F)ccc2Cl)nc2oc(-c3cc(C)c(OCC(=O)O)c(C)c3)nc12` [Example 65, {4-[5-(2-chloro-5-fluorophenoxy)-7-propoxy-oxazolo[5,4-d]pyrimidin-2-yl]-2,6-dimethylphenoxy}-acetic acid] is 105%.
The figure for `CCCOc1nc(Oc2ccc(Cl)c(F)c2)nc2oc(-c3cc(C)c(OCC(=O)O)c(C)c3)nc12` [Example 64, {4-[5-(4-chloro-3-fluorophenoxy)-7-propoxy-oxazolo[5,4-d]pyrimidin-2-yl]-2,6-dimethylphenoxy}-acetic acid] is 65%.
The figure for `CCCOc1nc(Oc2cnc3ccccc3c2)nc2oc(-c3cc(C)c(OCC(=O)O)c(C)c3)nc12` [Example 58, {2,6-dimethyl-4-[7-propoxy-5-(quinolin-3-yloxy)-oxazolo[5,4-d]pyrimidin-2-yl]-phenoxy}-acetic acid] is 75%.
Turning to `CCCOc1nc(Oc2cc(F)ccc2C)nc2oc(-c3cc(C)c(OCC(=O)O)c(C)c3)nc12` [Example 5, {4-[5-(5-fluoro-2-methyl-phenoxy)-7-propoxy-oxazolo[5,4-d]pyrimidin-2-yl]-2,6-dimethyl-phenoxy}-acetic acid], the activation at 10 µM is 91%.
Take `CCCOc1nc(Oc2cc(C)cc(F)c2)nc2oc(-c3cc(C)c(OCC(=O)O)c(C)c3)nc12` [Example 42, {4-[5-(3-fluoro-5-methylphenoxy)-7-propoxy-oxazolo[5,4-d]pyrimidin-2-yl]-2,6-dimethyl-phenoxy}-acetic acid]: the activation at 10 µM was determined as 66%.
The figure for `CCCOc1nc(Oc2ccsn2)nc2oc(-c3cc(C)c(OCC(=O)O)c(C)c3)nc12` [Example 27, {4-[5-(isothiazol-3-yloxy)-7-propoxy-oxazolo[5,4-d]pyrimidin-2-yl]-2,6-dimethylphenoxy}-acetic acid] is 109%; for `CCCOc1nc(Oc2cc(F)ccc2F)nc2oc(-c3cc(C)c(OCC(=O)O)c(C)c3)nc12` [Example 1, {4-[5-(2,5-Difluoro-phenoxy)-7-propoxy-oxazolo[5,4-d]pyrimidin-2-yl]-2,6-dimethyl-phenoxy}-acetic acid] it is 100%; for `CCCOc1nc(Oc2ccc(C(F)(F)F)cc2)nc2oc(-c3cc(C)c(OCC(=O)O)c(C)c3)nc12` [Example 68, {2,6-dimethyl-4-[7-propoxy-5-(4-trifluoromethylphenoxy)-oxazolo[5,4-d]pyrimidin-2-yl]-phenoxy}-acetic acid] it is 69%.
Consider `CCCOc1nc(OCCC(C)C)nc2oc(-c3cc(C)c(OCC(=O)O)c(C)c3)nc12` [Example 22, {2,6-dimethyl-4-[5-(3-methyl-butoxy)-7-propoxy-oxazolo[5,4-d]pyrimidin-2-yl]-phenoxy}-acetic acid], for which the activation at 10 µM was 92%.
The result for `CCCOc1nc(Oc2cccc(Cl)c2F)nc2oc(-c3cc(C)c(OCC(=O)O)c(C)c3)nc12` [Example 63, {4-[5-(3-chloro-2-fluorophenoxy)-7-propoxy-oxazolo[5,4-d]pyrimidin-2-yl]-2,6-dimethyl-phenoxy}-acetic acid] reads 67%; that for `CCCOc1nc(OC(C)CC)nc2oc(-c3cc(C)c(OCC(=O)O)c(C)c3)nc12` (stereo not drawn) [Example 20, [4-(5-sec-butoxy-7-propoxy-oxazolo[5,4-d]pyrimidin-2-yl)-2,6-dimethyl-phenoxy]-acetic acid], 80%.
The result for `CCCOc1nc(Oc2cccc(C(F)(F)F)c2F)nc2oc(-c3cc(C)c(OCC(=O)O)c(C)c3)nc12` [Example 72, {4-[5-(2-fluoro-3-trifluoromethylphenoxy)-7-propoxy-oxazolo[5,4-d]pyrimidin-2-yl]-2,6-dimethyl-phenoxy}-acetic acid] reads 48%; that for `CCCOc1nc(OCC(C)C)nc2oc(-c3cc(C)c(OCC(=O)O)c(C)c3)nc12` [Example 12, [4-(5-isobutoxy-7-propoxy-oxazolo[5,4-d]pyrimidin-2-yl)-2,6-dimethyl-phenoxy]-acetic acid], 97%.
The result for `CCCOc1nc(Oc2cccc(SC(F)(F)F)c2)nc2oc(-c3cc(C)c(OCC(=O)O)c(C)c3)nc12` [Example 76, {2,6-dimethyl-4-[7-propoxy-5-(3-trifluoromethylsulfanyl-phenoxy)-oxazolo[5,4-d]pyrimidin-2-yl]-phenoxy}-acetic acid] reads 81%.
For `CCCOc1nc(Oc2cccc(F)c2F)nc2oc(-c3cc(C)c(OCC(=O)O)c(C)c3)nc12` [Example 49, {4-[5-(2,3-difluorophenoxy)-7-propoxy-oxazolo[5,4-d]pyrimidin-2-yl]-2,6-dimethylphenoxy}-acetic acid], the activation at 10 µM is 103%.
The result for `CCCOc1nc(Oc2cccc(CC)c2)nc2oc(-c3cc(C)c(OCC(=O)O)c(C)c3)nc12` [Example 40, {4-[5-(3-ethylphenoxy)-7-propoxy-oxazolo[5,4-d]pyrimidin-2-yl]-2,6-dimethyl-phenoxy}-acetic acid] reads 95%; that for `CCCOc1nc(Oc2ccccc2C)nc2oc(-c3cc(C)c(OCC(=O)O)c(C)c3)nc12` [Example 30, [2,6-dimethyl-4-(7-propoxy-5-(2-methylphenoxy)-oxazolo[5,4-d]pyrimidin-2-yl)-phenoxy]-acetic acid], 97%.
The figure for `CCCOc1nc(Oc2ccccc2F)nc2oc(-c3cc(C)c(OCC(=O)O)c(C)c3)nc12` [Example 4, {4-[5-(2-fluoro-phenoxy)-7-propoxy-oxazolo[5,4-d]pyrimidin-2-yl]-2,6-dimethyl-phenoxy}-acetic acid] is 76%.

Values taken from patent publication US8748436B2, “Carboxylic acid derivatives having a 2,5,7-substituted oxazolopyrimidine ring” (Sanofi, priority 2010, dated 2014).
